Experimental data: patent publication US9084423B2, “Inhibition of bacterial biofilms with imidazole derivatives” (North Carolina State University, priority 2007, dated 2015)
Structures can show the parent of a compound that is named as a salt.

Columns and labels:
[1] = test system: P. aeruginosa strain PAO1; experiment: Static biofilm inhibition assay (crystal violet), PAO1; format: cell-based, Pseudomonas aeruginosa; details: for IC50 / inhibition at 500 µM: Pseudomonas aeruginosa, PAO1; for IC50: inhibition of biofilm formation, crystal violet, 24 hours
Method: Each compound was assayed for the ability to inhibit the formation of P. aeruginosa biofilms. […] We employed a standard crystal violet reporter assay to assess for the formation of biofilms. Briefly, P. aeruginosa strain PAO1 was allowed to form biofilms in a multi-well plate in the absence or presence of our compounds. Planktonic (or free growing) bacteria were then removed, wells washed vigorously, and crystal violet added. Crystal violet stains the remaining bacteria which, following ethanol solubilization, can be quantitated by spectrophotometry (A540).
(§1) An overnight culture of the bacterial strain being screened against was subcultured at an OD600 of 0.1 into the media used (listed below with strain) and then pipetted into test tubes along with a predetermined concentration of our compound of interest. Test tubes were then poured into tilted Petri dishes and 100 μL of media, strain and compound were then transferred into 96-well PVC microtiter plates. These microtiter plates were then covered, wrapped in Saran™ Wrap polyethylene film (S.C. Johnson, Racine, Wis.) and allowed to incubate at 37° C. for 24 hours. After that time, the medium was discarded and the plates were thoroughly washed with water. The remaining biofilm that was formed during incubation was stained with 100 μL of a 0.1% crystal violet solution and allowed to incubate at room temperature for 30 minutes. After 30 minutes, the crystal violet was discarded and washed thoroughly again with water. The remaining crystal violet that had stained the biofilm in the inside walls of the 96-well PVC plates was solubilized with 200 μL of 95% ethanol. The quantification of biofilm formation was accomplished by transferring 125 μL of the ethanol solution into a polystyrene microtiter dish, which was read by spectrophotometry (A540). After the background has been subtracted from each row, a percent inhibition can be calculated by dividing the amount of crystal violet in wells that contained compound by the amount of crystal violet in wells that contained bacteria only. Each concentration reported during the course of this study was repeated two to five times with each of those biofilm inhibition assays being done in 6 replicates each.
(§2) An overnight culture of the wild type strain was subcultured at an OD600 of 0.10 into LBNS along with a predetermined concentration of the small molecule to be tested for biofilm inhibition. Samples were then aliquoted (100 μL) into the wells of a 96-well PVC microtiter plate. The microtiter dishes were covered and sealed before incubation under stationary conditions at 37° C. for 24 hours. After that time, the medium was discarded and the plates thoroughly washed with water. The wells were then inoculated with a 0.1% aqueous solution of crystal violet (100 μL) and allowed to stand at ambient temperature for 30 minutes. Following another thorough washing with water the remaining stain was solubilized with 200 μL of 95% ethanol. Biofilm inhibition was quantitated by measuring the OD540 for each well by transferring 125 μL of the ethanol solution into a fresh polystyrene microtiter dish for analysis.
(§3) To examine each compound's ability to inhibit the formation of Pseudomonas aeruginosa biofilms, PAO1 and PA14 were employed as the target bacterial strains using a crystal violet reporter assay. G. A. O'Toole, R. Kolter, Mol. Microbiol. 1998, 28, 449. All compounds were initially screened at 500 μM for anti-biofilm activity.
An overnight culture of the wild type strain was subcultured at an OD600 of 0.10 into LBNS along with a predetermined concentration of the small molecule to be tested for biofilm inhibition. Samples were then aliquoted (100 μL) into the wells of a 96-well PVC microtiter plate. The microtiter dishes were covered and sealed before incubation under stationary conditions at 37° C. for 24 hours, After that time, the medium was discarded and the plates thoroughly washed with water. […]

P. aeruginosa PA14 = experiment: Static biofilm inhibition assay (crystal violet), PA14; format: cell-based, Pseudomonas aeruginosa; details: for IC50 / inhibition at 500 µM: Pseudomonas aeruginosa; for IC50: PA14, inhibition of biofilm formation, crystal violet, 24 hours; for inhibition at 500 µM: PA14, 24 h
Method: as §1, §2, §3
as §2, with “for 24 hours, After that” for “for 24 hours. After that”, “violet (100 pt) and allowed” for “violet (100 μL) and allowed”

IC50 [1] [µM] | IC50 (P. aeruginosa PA14) [µM] | Structure (SMILES) | % Biofilm Inhibition at 500 μM vs PAO1 ([1]; 500 μM, hydrochloride) [%] | inhibition at 500 µM [1] [%] | inhibition at 500 µM (P. aeruginosa PA14) [%] | inhibition of PA14 biofilm formation (in words) (P. aeruginosa PA14; screen at 500 μM)
32.7 ± 6.5 | 39.9 ± 13 | CCCCCCNC(=O)CCCc1c[nH]c(N)n1 [Compound 9, 4-(2-amino-1H-imidazol-4-yl)-N-hexyl-butyramide hydrochloride] |  |  |  | 
18.4 ± 2.3 | 13.3 ± 1.8 | CCCCCCCCNC(=O)CCCc1c[nH]c(N)n1 [Compound 10, 4-(2-amino-1H-imidazol-4-yl)-N-octyl-butyramide hydrochloride] |  |  |  | 
 |  | Cl.Nc1nc(CCCNC(=O)c2ccc[nH]2)c[nH]1 [Compound 17, 1H-pyrrole-2-carboxylic acid [3-(2-amino-1H-imidazol-4-yl)-propyl]-amide hydrochloride] | <10 | < 10 | 16 | 
323 ± 30 | 266 ± 23 | Nc1nc(CCCNC(=O)c2cc(Br)c[nH]2)c[nH]1 [Compound 18, 4-bromo-1H-pyrrole-2-carboxylic acid [3-(2-amino-1H-imidazol-4-yl)-propyl]-amide hydrochloride] |  | 74 | 86 | 
 |  | Nc1nc(CCCNC(=O)c2cc(Br)c(Br)[nH]2)c[nH]1 [Compound 19, 4,5-dibromo-1H-pyrrole-2-carboxylic acid [3-(2-amino-1H-imidazol-4-yl)-propyl]-amide hydrochloride] |  | < 70 | < 70 | 
 |  | Nc1nc(CCCNC(=O)c2cc(Cl)c(Cl)[nH]2)c[nH]1 [Compound 20, 4,5-dichloro-1H-pyrrole-2-carboxylic acid [3-(2-amino-1H-imidazol-4-yl)-propyl]-amide hydrochloride] |  | 37 | 48 | 
 |  | Cl.Cn1cccc1C(=O)NCCCc1c[nH]c(N)n1 [Compound 21, 1-methyl-pyrrole-2-carboxylic acid [3-(2-amino-1H-imidazol-4-yl)-propyl]-amide hydrochloride] |  | 25 |  | inactive
348 ± 13 | 309 ± 16 | Cn1cc(Br)cc1C(=O)NCCCc1c[nH]c(N)n1 [Compound 22, 4-bromo-1-methyl-pyrrole-2-carboxylic acid [3-(2-amino-1H-imidazol-4-yl)-propyl]-amide hydrochloride] |  | 88 | 83 | 
 |  | Cn1c(C(=O)NCCC=C2NC(N)=NC2=O)cc(Br)c1Br [Compound 32, 4,5-dibromo-1-methyl-pyrrole-2-carboxylic acid [3-(2-amino-5-oxo-3,5-dihydro-imidazol-4-ylidene)-propyl]-amide hydrochloride, reference compound] |  | < 20 | < 20 | 
 |  | O=C(NCCc1c[nH]cn1)c1ccc[nH]1 [Compound 34, 1H-pyrrole-2-carboxylic acid [2-(1H-imidazol-4-yl)-ethyl]amide hydrochloride] |  | 42 | 31 | 
 |  | O=C(NCCc1c[nH]cn1)c1cc(Br)c[nH]1 [Compound 35, 4-bromo-1H-pyrrole-2-carboxylic acid [2-(1H-imidazol-4-yl)-ethyl]-amide hydrochloride] |  | 46 | 43 | 
 |  | O=C(NCCc1c[nH]cn1)c1cc(Br)c(Br)[nH]1 [Compound 36, 4,5-dibromo-1H-pyrrole-2-carboxylic acid [2-(1H-imidazol-4-yl)-ethyl]-amide hydrochloride] |  | 73 | 69 | 
 |  | O=C(NCCc1c[nH]cn1)c1cc(Cl)c(Cl)[nH]1 [Compound 37, 4,5-dichloro-1H-pyrrole-2-carboxylic acid [2-(1H-imidazol-4-yl)-ethyl]-amide hydrochloride] |  | 33 | 38 | 
 |  | Cn1cccc1C(=O)NCCc1c[nH]cn1 [Compound 38, 1-methyl-pyrrole-2-carboxylic acid [2-(1H-imidazol-4-yl)-ethyl]amide hydrochloride] |  | 29 | 34 | 
